{"source": "patent US8642594B2", "about": "“Substituted thieno[2,3-d]pyrimidines as HSP90 inhibitors” (Vernalis (R&D) Limited, priority 2003, dated 2014)", "note": "pIC50: −log10 of the molar value."}
{"system": "not listed separately", "assay": "Sulforhodamine B (SRB) growth inhibition / growth arrest assay", "assay_type": "cell-based", "conditions": "activity range", "method": "A growth inhibition assay was also employed for the evaluation of candidate HSP90 inhibitors:\nAssessment of Cytotoxicity by Sulforhodamine B (SRB) Assay: Calculation of 50% Inhibitory Concentration (IC50).\nDay 1 • 1) Determine cell number by haemocytometer. • 2) Using an 8 channel multipipettor, add 160 μl of the cell suspension (3600 cells/well or 2×10^4 cells/ml) to each well of a 96-well microtitre plate. • 3) Incubate overnight at 37° C. in a CO2 incubator. Day 2 • 4) Stock solutions of drugs are prepared, and serial dilutions of each drug are performed in medium to give final concentrations in wells. • 5) Using a multipipettor, 40 μl of drug (at 5× final concentration) is added to quadruplicate wells. • 6) Control wells are at either side of the 96 well plates, where 40 μl of medium is added. • 7) Incubate plates in CO2 incubator for 4 days […]. […] Leave for 15 mins. • 12) Wash off unbound SRB stain with four washes of 1% acetic acid. • 13) Dry plates in incubator. • 14) Solubilise SRB using 100 μl of 10 mM Tris base and put plates on plate shaker for 5 mins. • 15) Determine absorbance at 540 nm using a plate reader. Calculate mean absorbance for quadruplicate wells and express as a percentage of value for control, untreated wells. • 16) Plot % absorbance values versus log drug concentration and determine the IC50."}
{"compound": "CCOC(=O)c1cc2c(-c3ccc(C(F)(F)F)cc3)nc(N)nc2s1", "note": "[Example 2, 2-Amino-4-(4-trifluoromethyl-phenyl)-thieno[2,3-d]pyrimidine-6-carboxylic acid ethyl ester]", "pIC50": "> 4.30"}
{"target": "T1, Human full-length Hsp90 (Homo sapiens, UniProt P08238)", "T1 construct": "E. coli expressed human full-length HSP90 protein, purified >95%; made in house; host or cells: E. coli", "T1 sequence (P08238 whole entry)": "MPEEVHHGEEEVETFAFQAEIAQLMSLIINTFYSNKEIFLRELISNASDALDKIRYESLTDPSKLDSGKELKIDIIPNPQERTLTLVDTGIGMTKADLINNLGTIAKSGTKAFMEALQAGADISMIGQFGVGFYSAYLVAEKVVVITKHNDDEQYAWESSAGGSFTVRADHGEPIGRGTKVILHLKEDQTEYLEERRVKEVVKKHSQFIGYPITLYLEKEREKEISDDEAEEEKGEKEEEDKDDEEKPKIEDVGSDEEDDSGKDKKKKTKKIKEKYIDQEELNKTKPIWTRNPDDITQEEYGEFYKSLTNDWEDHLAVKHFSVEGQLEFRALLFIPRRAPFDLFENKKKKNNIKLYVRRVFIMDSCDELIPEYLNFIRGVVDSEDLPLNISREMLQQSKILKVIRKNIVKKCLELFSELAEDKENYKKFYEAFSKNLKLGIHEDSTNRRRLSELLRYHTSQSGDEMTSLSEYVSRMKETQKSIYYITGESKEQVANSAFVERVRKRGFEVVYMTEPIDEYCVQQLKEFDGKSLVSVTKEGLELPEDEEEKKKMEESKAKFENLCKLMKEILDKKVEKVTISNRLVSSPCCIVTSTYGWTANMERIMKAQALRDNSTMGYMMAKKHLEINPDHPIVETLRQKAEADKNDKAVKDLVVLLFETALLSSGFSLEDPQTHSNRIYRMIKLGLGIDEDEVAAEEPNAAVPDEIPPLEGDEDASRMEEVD", "assay": "Fluorescence polarization assay (competitive binding to HSP90, probe RBT0045864-FAM)", "conditions": "not given", "how_it_was_run": "(§1)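 Competitive fluorescence polarization: test compound displaces FAM-labelled probe RBT0045864-FAM (200 nM working solution) from HSP90 after equilibration, and anisotropy change is measured. Compounds serially diluted; BSA-containing buffer; standard compound as positive control; Z′ from zero and positive controls.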"}
{"compound": "CCNC(=O)c1cc2c(-c3ccc(Cl)cc3Cl)nc(N)nc2s1", "note": "[Example 98]", "pIC50": "> 5.00"}
{"compound": "CCNC(=O)c1cc2c(-c3cc(OCCN4CCC(F)(F)CC4)c(Cl)cc3Cl)nc(N)nc2s1", "note": "[Example 250]", "pIC50": "> 5.00"}
{"compound": "CCNC(=O)c1cc2c(-c3cc(OCCNCCOC)c(Cl)cc3Cl)nc(N)nc2s1", "note": "[Example 247]", "pIC50": "> 5.00"}
{"compound": "CCN(CC)CCOc1cc(-c2nc(N)nc3sc(C(=O)NC4CC4)cc23)c(Cl)cc1Cl", "note": "[Example 251]", "pIC50": "> 5.00"}
{"compound": "CCNC(=O)c1cc2c(-c3cc(OCC#N)c(Cl)cc3Cl)nc(N)nc2s1", "note": "[Example 270]", "pIC50": "> 5.00"}
{"target": "T1, Human full-length Hsp90", "assay": "Fluorescence polarization assay (competitive binding to HSP90, probe RBT0045864-FAM)", "conditions": "fluorescence polarization assay, activity range; read-out: Hsp90 FP IC50", "how_it_was_run": "as §1"}
{"compound": "CCOC(=O)c1cc2c(-c3ccc(C(F)(F)F)cc3)nc(N)nc2s1", "note": "[Example 2, 2-Amino-4-(4-trifluoromethyl-phenyl)-thieno[2,3-d]pyrimidine-6-carboxylic acid ethyl ester]", "pIC50": "< 5.00"}
{"compound": "CCOC(=O)c1cc2c(-c3cccc(Cl)c3)nc(N)nc2s1", "note": "[Example 14]", "pIC50": "< 5.00"}
{"compound": "CCOC(=O)c1cc2c(C(=O)c3cc(C)ccc3C)nc(N)nc2s1", "note": "[Example 299]", "pIC50": "> 5.00"}
{"compound": "Nc1nc(-c2ccc(Cl)cc2Cl)c2cc(C(=O)Nc3ccccc3)sc2n1", "note": "[Example 107]", "pIC50": "> 5.00"}
{"compound": "CCOC(=O)c1cc2c(C(=O)c3ccc(Cl)c(Cl)c3)nc(N)nc2s1", "note": "[Example 309]", "pIC50": "> 5.00"}
{"compound": "CCNC(=O)c1cc2c(-c3cc(CNCCO)c(C)cc3C)nc(N)nc2s1", "note": "[Example 234]", "pIC50": "> 5.00"}
{"compound": "Nc1nc(-c2ccc(Cl)cc2Cl)c2cc(C(=O)NC3CN4CCC3CC4)sc2n1", "note": "(centres unmarked) [Example 158]", "pIC50": "> 5.00"}
{"compound": "Nc1nc(-c2ccc(Cl)cc2Cl)c2cc(C(=O)NCc3cccnc3)sc2n1", "note": "[Example 123]", "pIC50": "> 5.00"}
{"compound": "CNC(=O)c1cc2c(Oc3ccccc3)nc(N)nc2s1", "note": "[Example 27]", "pIC50": "< 5.00"}
{"compound": "CCNC(=O)c1cc2c(-c3cc(CNCc4cccnc4)ccc3C)nc(N)nc2s1", "note": "[Example 217]", "pIC50": "> 5.00"}
{"compound": "CCNC(=O)c1cc2c(-c3cc(C=O)ccc3C)nc(N)nc2s1", "note": "[Example 170]", "pIC50": "> 5.00"}
{"compound": "CCOC(=O)c1cc2c(/C=C/c3ccc(Cl)cc3)nc(N)nc2s1", "note": "[Example 281]", "pIC50": "> 5.00"}
{"compound": "CCNC(=O)c1cc2c(-c3cc(OCc4cc(=O)[nH]c(=O)[nH]4)c(Cl)cc3Cl)nc(N)nc2s1", "note": "[Example 268]", "pIC50": "> 5.00"}
{"compound": "CCOC(=O)c1cc2c(C#N)nc(N)nc2s1", "note": "[Example 319, 2-Amino-4-cyano-thieno[2,3-d]pyrimidine-6-carboxylic acid ethyl ester]", "pIC50": "> 5.00"}
{"compound": "CCCOc1ccc(-c2nc(N)nc3sc(C(=O)OCC)cc23)c(C)c1", "note": "[Example 185, 2-Amino-4-(2-methyl-4-propoxy-phenyl)-thieno[2,3-d]pyrimidine-6-carboxylic acid ethyl ester]", "pIC50": "> 5.00"}
{"compound": "CCNC(=O)c1cc2c(-c3cccc(O)c3)nc(N)nc2s1", "note": "[Example 244]", "pIC50": "> 5.00"}
{"compound": "CCNC(=O)c1cc2c(-c3cc(OCCn4ccnc4)c(Cl)cc3Cl)nc(N)nc2s1", "note": "[Example 263]", "pIC50": "> 5.00"}
{"compound": "CC(C)NC(=O)c1cc2c(-c3cc(OCc4ccccc4)c(Cl)cc3Cl)nc(N)nc2s1", "note": "[Example 242]", "pIC50": "> 5.00"}
{"compound": "CCOC(=O)c1cc2c(-c3ccc(CC)cc3Cl)nc(N)nc2s1", "note": "[Example 175]", "pIC50": "> 5.00"}
{"compound": "CN(C)CCCNC(=O)c1cc2c(-c3ccccc3)nc(N)nc2s1", "note": "[Example 45]", "pIC50": "< 5.00"}
{"compound": "CCCNC(=O)c1ccc(C)c(-c2nc(N)nc3sc(C(=O)OCC)cc23)c1", "note": "[Example 181]", "pIC50": "> 5.00"}
{"compound": "CCOC(=O)c1cc2c(-c3cc(C)c(Br)cc3C)nc(N)nc2s1", "note": "[Example 105]", "pIC50": "> 5.00"}
{"compound": "CCOC(=O)c1cc2c(-c3cc(CNCCN4CCOCC4)ccc3C)nc(N)nc2s1", "note": "[Example 198]", "pIC50": "> 5.00"}
{"compound": "CCOC(=O)c1cc2c(-c3ccc(OCc4ccccc4)cc3C)nc(N)nc2s1", "note": "[Example 90]", "pIC50": "< 5.00"}
{"compound": "CCOC(=O)c1cc2c(/C=C/C(C)(C)C)nc(N)nc2s1", "note": "[Example 289]", "pIC50": "< 5.00"}
{"compound": "CSCC[C@H](NC(=O)c1cc2c(-c3ccc(Cl)cc3Cl)nc(N)nc2s1)C(N)=O", "note": "[Example 166]", "pIC50": "> 5.00"}
{"compound": "Nc1nc(-c2ccccc2)c2cc(C(=O)NCCCN3CCOCC3)sc2n1", "note": "[Example 66]", "pIC50": "< 5.00"}
{"compound": "CCOC(=O)c1cc2c(C(=O)c3ccc(F)cc3)nc(N)nc2s1", "note": "[Example 305]", "pIC50": "> 5.00"}
{"compound": "Nc1nc(-c2ccc(Cl)cc2Cl)c2cc(C(=O)NCC3CCCO3)sc2n1", "note": "(centres unmarked) [Example 132]", "pIC50": "> 5.00"}
{"compound": "Cc1ccc(-c2nc(N)nc3sc(C(=O)Nc4ccccc4)cc23)c(C)c1", "note": "[Example 91]", "pIC50": "> 5.00"}
{"compound": "CCN1CCCC1CNC(=O)c1cc2c(-c3ccc(Cl)cc3Cl)nc(N)nc2s1", "note": "(centres unmarked) [Example 129]", "pIC50": "> 5.00"}
{"compound": "Nc1nc(-c2ccc(Cl)cc2Cl)c2cc(C(=O)NC(CO)CO)sc2n1", "note": "[Example 127]", "pIC50": "> 5.00"}
{"compound": "Cc1ccc(-c2nc(N)nc3sc(C(=O)NCC(N)=O)cc23)c(C)c1", "note": "[Example 95]", "pIC50": "> 5.00"}
{"compound": "CCOC(=O)c1cc2c(-c3ccc(OC)cc3)nc(N)nc2s1", "note": "[Example 12]", "pIC50": "< 5.00"}
{"compound": "CCOC(=O)c1cc2c(-c3ccc(OCC)cc3Cl)nc(N)nc2s1", "note": "[Example 78]", "pIC50": "> 5.00"}
{"compound": "CCOC(=O)c1cc2c(-c3ccc(OCC#N)cc3C)nc(N)nc2s1", "note": "[Example 188]", "pIC50": "> 5.00"}
{"compound": "CCN(CC)CCOc1cc(-c2nc(N)nc3sc(C(=O)NCCO)cc23)c(Cl)cc1Cl", "note": "[Example 258]", "pIC50": "> 5.00"}
{"compound": "CCCNC(=O)c1ccc(C)c(-c2nc(N)nc3sc(C(=O)NC4CC4)cc23)c1", "note": "[Example 183]", "pIC50": "> 5.00"}
{"compound": "CCOC(=O)c1cc2c(-c3c(C)cc(C)cc3C)nc(N)nc2s1", "note": "[Example 77]", "pIC50": "> 5.00"}
{"compound": "CCOC(=O)c1cc2c(-c3ccc(C#N)cc3Cl)nc(N)nc2s1", "note": "[Example 148]", "pIC50": "> 5.00"}
{"compound": "CCNC(=O)c1cc2c(-c3cc(CNC4CC4)ccc3C)nc(N)nc2s1", "note": "[Example 203]", "pIC50": "> 5.00"}
{"compound": "Cc1ccc(-c2nc(N)nc3sc(C(=O)NCc4ccccc4)cc23)c(C)c1", "note": "[Example 92]", "pIC50": "> 5.00"}
{"compound": "CCNC(=O)c1cc2c(C(C)c3ccccc3)nc(N)nc2s1", "note": "(centres unmarked) [Example 287]", "pIC50": "> 5.00"}
{"compound": "CCOC(=O)c1cc2c(C(C#N)c3ccc(OC)cc3)nc(N)nc2s1", "note": "(centres unmarked) [Example 318]", "pIC50": "< 5.00"}
{"compound": "CCOC(=O)c1cc2c(-c3c(C)cccc3C)nc(N)nc2s1", "note": "[Example 6]", "pIC50": "> 5.00"}
{"compound": "NC(=O)c1ccc(NC(=O)c2cc3c(-c4ccc(Cl)cc4Cl)nc(N)nc3s2)cc1", "note": "[Example 110]", "pIC50": "> 5.00"}
{"compound": "NC(=O)CNC(=O)c1cc2c(-c3ccccc3)nc(N)nc2s1", "note": "[Example 71]", "pIC50": "> 5.00"}
{"compound": "Cc1ccc(-c2nc(N)nc3sc(C(=O)N4CCOCC4)cc23)c(C)c1", "note": "[Example 96]", "pIC50": "< 5.00"}
{"compound": "CCOC(=O)c1cc2c(-c3cc(C(=O)OC)ccc3C)nc(N)nc2s1", "note": "[Example 179]", "pIC50": "> 5.00"}
{"compound": "Nc1nc(-c2ccc(Cl)cc2Cl)c2cc(C(=O)NCc3ccc(F)cc3)sc2n1", "note": "[Example 120]", "pIC50": "> 5.00"}
{"compound": "CCNC(=O)c1cc2c(-c3ccc(C)cc3Cl)nc(N)nc2s1", "note": "[Example 152]", "pIC50": "> 5.00"}
{"compound": "COCCCNC(=O)c1cc2c(-c3ccc(Cl)cc3Cl)nc(N)nc2s1", "note": "[Example 126]", "pIC50": "> 5.00"}
{"compound": "Nc1nc(-c2ccccc2)c2cc(C(=O)NC3CCCC3)sc2n1", "note": "[Example 62]", "pIC50": "> 5.00"}
